Experiment: Stability (integrity) testing of amorphous and polymorphic form under storage conditions, RP-HPLC
Type: physicochemical
Set-up: Impurity RRT 1.104 / Impurity RRT 1.698: unit not given beside the values
Outline: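 Amorphous form and three batches of polymorphic Form I of the hemi calcium salt were stored under different atmospheric conditions. Purity measured by RP-HPLC on C18 with UV detection, drug as percent of total absorption; total impurity from summed impurity peak areas, impurities identified by relative retention time.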

[1] = 25° C./60% RH 3M, hemi calcium salt
[2] = 25° C./60% RH 9M, hemi calcium salt

- Description (5° C. 1M): White
- Impurity RRT 1.096 (5° C. 1M): 0.248
- Impurity RRT 1.183 (5° C. 1M): 0.051
- Impurity RRT 1.439 (5° C. 1M): 0.17
- Impurity RRT 1.596 (5° C. 1M): 0.086
- Impurity RRT 1.698 (5° C. 1M): 0.068
- Assay (5° C. 1M, hemi calcium salt): 98.36 % W/W
- Highest Impurity (5° C. 1M, hemi calcium salt): 0.459
- Impurity RRT 0.935 (5° C. 1M, hemi calcium salt): 0.412
- Impurity RRT 1.045 (5° C. 1M, hemi calcium salt): 0.459
- Impurity RRT 1.64 (5° C. 1M, hemi calcium salt): 0.063
- Total Impurity (5° C. 1M, hemi calcium salt): 1.56
- Water (5° C. 1M, hemi calcium salt): 4.45 % W/W
- Description (5° C. 2M): White
- Impurity RRT 1.096 (5° C. 2M): 0.233
- Impurity RRT 1.183 (5° C. 2M): 0.06
- Impurity RRT 1.439 (5° C. 2M): 0.163
- Impurity RRT 1.596 (5° C. 2M): 0.079
- Impurity RRT 1.698 (5° C. 2M): 0.07
- Assay (5° C. 2M, hemi calcium salt): 98.24 % W/W
- Highest Impurity (5° C. 2M, hemi calcium salt): 0.443
- Impurity RRT 0.935 (5° C. 2M, hemi calcium salt): 0.413
- Impurity RRT 1.045 (5° C. 2M, hemi calcium salt): 0.443
- Impurity RRT 1.64 (5° C. 2M, hemi calcium salt): 0.06
- Total Impurity (5° C. 2M, hemi calcium salt): 1.52
- Water (5° C. 2M, hemi calcium salt): 4.31 % W/W
- Description (5° C. 3M): White
- Impurity RRT 1.096 (5° C. 3M): 0.216
- Impurity RRT 1.439 (5° C. 3M): 0.150
- Impurity RRT 1.596 (5° C. 3M): 0.068
- Impurity RRT 1.698 (5° C. 3M): 0.068
- Total Impurity (5° C. 3M): 1.35
- Assay (5° C. 3M, hemi calcium salt): 98.19 % W/W
- Highest Impurity (5° C. 3M, hemi calcium salt): 0.414
- Impurity RRT 0.935 (5° C. 3M, hemi calcium salt): 0.376
- Impurity RRT 1.045 (5° C. 3M, hemi calcium salt): 0.414
- Impurity RRT 1.64 (5° C. 3M, hemi calcium salt): 0.055
- Water (5° C. 3M, hemi calcium salt): 3.90 % W/W
- Description (5° C. 4M): White
- Impurity RRT 0.138 (5° C. 4M): 0.228
- Impurity RRT 1.096 (5° C. 4M): 0.205
- Impurity RRT 1.439 (5° C. 4M): 0.159
- Impurity RRT 1.596 (5° C. 4M): 0.060
- Impurity RRT 1.698 (5° C. 4M): 0.052
- Assay (5° C. 4M, hemi calcium salt): 98.17 % W/W
- Highest Impurity (5° C. 4M, hemi calcium salt): 0.427
- Impurity RRT 0.935 (5° C. 4M, hemi calcium salt): 0.341
- Impurity RRT 1.045 (5° C. 4M, hemi calcium salt): 0.427
- Impurity RRT 1.640 (5° C. 4M, hemi calcium salt): 0.051
- Total Impurity (5° C. 4M, hemi calcium salt): 1.523
- Water (5° C. 4M, hemi calcium salt): 5.08 % W/W
- Description (5° C. 5M): White
- Impurity RRT 0.138 (5° C. 5M): 0.22
- Impurity RRT 1.096 (5° C. 5M): 0.236
- Impurity RRT 1.439 (5° C. 5M): 0.122
- Impurity RRT 1.596 (5° C. 5M): 0.054
- Impurity RRT 1.698 (5° C. 5M): 0.065
- Assay (5° C. 5M, hemi calcium salt): 98.27 % W/W
- Highest Impurity (5° C. 5M, hemi calcium salt): 0.401
- Impurity RRT 0.935 (5° C. 5M, hemi calcium salt): 0.373
- Impurity RRT 1.045 (5° C. 5M, hemi calcium salt): 0.401
- Impurity RRT 1.640 (5° C. 5M, hemi calcium salt): 0.047
- Total Impurity (5° C. 5M, hemi calcium salt): 1.527
- Water (5° C. 5M, hemi calcium salt): 4.67 % W/W
- Description (5° C. 6M): White
- Impurity RRT 0.138 (5° C. 6M): 0.238
- Impurity RRT 1.096 (5° C. 6M): 0.189
- Impurity RRT 1.183 (5° C. 6M): 0.056
- Impurity RRT 1.439 (5° C. 6M): 0.146
- Impurity RRT 1.596 (5° C. 6M): 0.080
- Impurity RRT 1.698 (5° C. 6M): 0.059
- Water (5° C. 6M): 5.04 % W/W
- Assay (5° C. 6M, hemi calcium salt): 98.61 % W/W
- Highest Impurity (5° C. 6M, hemi calcium salt): 0.438
- Impurity RRT 0.935 (5° C. 6M, hemi calcium salt): 0.373
- Impurity RRT 1.045 (5° C. 6M, hemi calcium salt): 0.438
- Impurity RRT 1.640 (5° C. 6M, hemi calcium salt): 0.048
- Total Impurity (5° C. 6M, hemi calcium salt): 1.627
- Description (5° C. 9M): White
- Impurity RRT 0.138 (5° C. 9M): 0.228
- Impurity RRT 1.096 (5° C. 9M): 0.205
- Impurity RRT 1.439 (5° C. 9M): 0.188
- Impurity RRT 1.596 (5° C. 9M): 0.061
- Impurity RRT 1.698 (5° C. 9M): 0.082
- Assay (5° C. 9M, hemi calcium salt): 97.96 % W/W
- Highest Impurity (5° C. 9M, hemi calcium salt): 0.400
- Impurity RRT 0.935 (5° C. 9M, hemi calcium salt): 0.366
- Impurity RRT 1.045 (5° C. 9M, hemi calcium salt): 0.400
- Impurity RRT 1.640 (5° C. 9M, hemi calcium salt): 0.056
- Total Impurity (5° C. 9M, hemi calcium salt): 1.586
- Water (5° C. 9M, hemi calcium salt): 4.64 % W/W
- Description (5° C. 12M): White
- Impurity RRT 0.138 (5° C. 12M): 0.259
- Impurity RRT 1.096 (5° C. 12M): 0.208
- Impurity RRT 1.183 (5° C. 12M): 0.033
- Impurity RRT 1.439 (5° C. 12M): 0.141
- Impurity RRT 1.596 (5° C. 12M): 0.053
- Impurity RRT 1.698 (5° C. 12M): 0.045
- Assay (5° C. 12M, hemi calcium salt): 98.27 % W/W
- Highest Impurity (5° C. 12M, hemi calcium salt): 0.412
- Impurity RRT 0.935 (5° C. 12M, hemi calcium salt): 0.392
- Impurity RRT 1.045 (5° C. 12M, hemi calcium salt): 0.412
- Impurity RRT 1.640 (5° C. 12M, hemi calcium salt): 0.050
- Total Impurity (5° C. 12M, hemi calcium salt): 1.593
- Water (5° C. 12M, hemi calcium salt): 5.03 % W/W
- Description (25° C./60% RH 3M): White
- Impurity RRT 1.096 (25° C./60% RH 3M): 0.214
- Impurity RRT 1.439 (25° C./60% RH 3M): 0.158
- Impurity RRT 1.596 (25° C./60% RH 3M): 0.067
- Impurity RRT 1.698 (25° C./60% RH 3M): 0.065
- Assay [1]: 98.15 % W/W
- Highest Impurity [1]: 0.427
- Impurity RRT 0.935 [1]: 0.383
- Impurity RRT 1.045 [1]: 0.427
- Impurity RRT 1.64 [1]: 0.051
- Total Impurity [1]: 1.37
- Water [1]: 4.74 % W/W
- Assay (25° C./60% RH 6M): 98.15 % W/W
- Description (25° C./60% RH 6M): White
- Highest Impurity (25° C./60% RH 6M): 0.405
- Impurity RRT 0.138 (25° C./60% RH 6M): 0.113
- Impurity RRT 0.935 (25° C./60% RH 6M): 0.338
- Impurity RRT 1.045 (25° C./60% RH 6M): 0.405
- Impurity RRT 1.096 (25° C./60% RH 6M): 0.233
- Impurity RRT 1.439 (25° C./60% RH 6M): 0.142
- Impurity RRT 1.596 (25° C./60% RH 6M): 0.066
- Impurity RRT 1.640 (25° C./60% RH 6M): 0.035
- Impurity RRT 1.698 (25° C./60% RH 6M): 0.056
- Total Impurity (25° C./60% RH 6M): 1.388
- Water (25° C./60% RH 6M): 5.04 % W/W
- Description (25° C./60% RH 9M): White
- Impurity RRT 0.138 (25° C./60% RH 9M): 0.111
- Impurity RRT 1.096 (25° C./60% RH 9M): 0.212
- Impurity RRT 1.183 (25° C./60% RH 9M): 0.039
- Impurity RRT 1.439 (25° C./60% RH 9M): 0.155
- Impurity RRT 1.596 (25° C./60% RH 9M): 0.042
- Impurity RRT 1.698 (25° C./60% RH 9M): 0.063
- Assay [2]: 98.06 % W/W
- Highest Impurity [2]: 0.389
- Impurity RRT 0.935 [2]: 0.375
- Impurity RRT 1.045 [2]: 0.389
- Impurity RRT 1.640 [2]: 0.045
- Total Impurity [2]: 1.431
- Water [2]: 5.31 % W/W
- Description (25° C./60% RH 12M): White
- Impurity RRT 0.138 (25° C./60% RH 12M): 0.199
- Impurity RRT 1.096 (25° C./60% RH 12M): 0.212
- Impurity RRT 1.183 (25° C./60% RH 12M): 0.036
Structure (SMILES): CC(C)c1c(C(=O)Nc2ccc(CO)cc2)c(-c2ccccc2)c(-c2ccc(F)cc2)n1CC[C@@H](O)C[C@@H](O)CC(=O)[O-].CC(C)c1c(C(=O)Nc2ccc(CO)cc2)c(-c2ccccc2)c(-c2ccc(F)cc2)n1CC[C@@H](O)C[C@@H](O)CC(=O)[O-].[Ca+2] [PP00105, (3R, 5R)-7-[2-(4-fluorophenyl)-5-isopropyl-3-phenyl-4-[(4-hydroxymethylphenylamino)carbonyl]-pyrrol-1-yl]-3,5-dihydroxy-heptanoic acid, hemi calcium salt]

Reference: US20080153896A1, “Polymorphic Forms of an HMG-CoA Reductase Inhibitor and Uses Thereof” (priority 2006, published 2008)
